Assay results: patent US20050209278A1, “Piperidinyl- and piperazinyl-sulfonylmethyl hydroxamic acids and their use as protease inhibitors” (priority 2002, published 2005)
Structures can show the parent of a compound that is named as a salt. Where two headings read alike, the source gives them in different places.

Experiments:
Format in all cases: biochemical
MMP-2 = target: T1, MMP-2 (Homo sapiens, UniProt P08253); assay: MMP-2 inhibition (in vitro Ki)
T1 construct: made in house; host or cells: MMP-2-transfected p2AHT2 cells
T1 sequence (P08253 110-660): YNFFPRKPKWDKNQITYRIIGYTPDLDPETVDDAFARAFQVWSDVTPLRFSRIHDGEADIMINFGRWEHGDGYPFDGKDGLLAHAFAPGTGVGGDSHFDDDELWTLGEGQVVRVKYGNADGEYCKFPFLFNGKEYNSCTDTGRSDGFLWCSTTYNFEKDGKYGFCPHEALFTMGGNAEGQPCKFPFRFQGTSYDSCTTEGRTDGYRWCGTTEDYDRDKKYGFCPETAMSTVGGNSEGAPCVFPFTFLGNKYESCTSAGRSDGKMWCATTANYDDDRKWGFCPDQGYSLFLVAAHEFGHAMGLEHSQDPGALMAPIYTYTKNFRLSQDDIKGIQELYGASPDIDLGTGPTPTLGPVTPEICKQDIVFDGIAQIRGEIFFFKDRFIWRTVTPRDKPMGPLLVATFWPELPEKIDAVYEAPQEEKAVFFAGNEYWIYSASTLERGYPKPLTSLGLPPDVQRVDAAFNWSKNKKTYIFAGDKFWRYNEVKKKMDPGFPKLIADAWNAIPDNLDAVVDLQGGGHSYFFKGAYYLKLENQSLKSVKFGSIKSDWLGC

MMP-13 = target: T2, MMP-13 (Homo sapiens, UniProt P45452); assay: MMP-13 inhibition (in vitro Ki)
T2 construct: made in house; host or cells: baculovirus / insect cells

MMP-14 = target: T3, MMP-14 (Homo sapiens, UniProt P50281); assay: MMP-14 inhibition (in vitro Ki)
T3 construct: The catalytic domain enzyme was expressed in E. coli inclusion bodies, solubilized in urea; made in house

MMP-9 = target: T4, MMP-9 (Homo sapiens, UniProt P14780); assay: MMP-9 inhibition (in vitro Ki)
T4 construct: made in house; host or cells: MMP-9-transfected HT1080 cells (spent media)
T4 sequence (P14780 107-707 limits assumed): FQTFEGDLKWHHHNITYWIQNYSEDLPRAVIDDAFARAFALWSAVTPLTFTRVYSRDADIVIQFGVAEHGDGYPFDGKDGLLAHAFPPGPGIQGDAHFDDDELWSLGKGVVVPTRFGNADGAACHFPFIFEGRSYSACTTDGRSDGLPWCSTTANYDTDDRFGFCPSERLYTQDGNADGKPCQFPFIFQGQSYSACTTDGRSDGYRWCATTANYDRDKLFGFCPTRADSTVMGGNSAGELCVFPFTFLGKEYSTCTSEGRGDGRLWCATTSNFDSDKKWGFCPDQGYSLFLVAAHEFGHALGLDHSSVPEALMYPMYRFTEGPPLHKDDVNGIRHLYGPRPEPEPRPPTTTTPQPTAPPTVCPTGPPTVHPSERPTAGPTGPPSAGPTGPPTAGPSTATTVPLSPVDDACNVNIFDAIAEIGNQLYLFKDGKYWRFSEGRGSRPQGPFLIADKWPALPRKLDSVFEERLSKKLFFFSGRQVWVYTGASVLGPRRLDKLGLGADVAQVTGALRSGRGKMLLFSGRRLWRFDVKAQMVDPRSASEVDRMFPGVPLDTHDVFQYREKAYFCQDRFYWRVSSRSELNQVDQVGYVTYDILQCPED

MMP-1 = target: T5, MMP-1 (Homo sapiens, UniProt P03956); assay: MMP-1 inhibition (in vitro Ki)
T5 construct: made in house; host or cells: MMP-1-transfected HT-1080 cells (spent media)
T5 sequence (P03956 100-469): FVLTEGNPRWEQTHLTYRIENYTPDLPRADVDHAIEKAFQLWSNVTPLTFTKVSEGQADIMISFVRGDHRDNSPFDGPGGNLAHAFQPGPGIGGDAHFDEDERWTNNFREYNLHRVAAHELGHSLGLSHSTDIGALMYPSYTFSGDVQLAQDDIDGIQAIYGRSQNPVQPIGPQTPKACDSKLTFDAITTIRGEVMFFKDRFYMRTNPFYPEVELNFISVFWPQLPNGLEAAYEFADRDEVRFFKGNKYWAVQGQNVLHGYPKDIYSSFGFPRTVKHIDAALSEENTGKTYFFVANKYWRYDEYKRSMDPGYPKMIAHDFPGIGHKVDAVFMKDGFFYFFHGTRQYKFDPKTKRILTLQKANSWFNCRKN

[1] = Table 9, read-out: MMP-2 Ki (IC-50)
[2] = Table 9, read-out: MMP-13 Ki (IC-50)
[3] = Table 9, read-out: MMP-14 Ki (IC-50)
[4] = Table 9, read-out: MMP-9 Ki (IC-50)
[5] = Table 9, read-out: MMP-1 Ki (IC-50)

Row | SMILES | Ki (MMP-2; [1]) | Ki (MMP-13; [2]) | Ki (MMP-14; [3]) | Ki (MMP-9; [4]) | Ki (MMP-1; [5]) | Ki (MMP-2; Table 8, read-out: MMP-2 Ki) | Ki (MMP-13; Table 8, read-out: MMP-13 Ki) | Ki (MMP-14; Table 8, read-out: MMP-14 Ki) | Ki (MMP-9; Table 8, read-out: MMP-9 Ki) | Ki (MMP-1; Table 8, read-out: MMP-1 Ki)
1 | O=C(NO)C1(S(=O)(=O)N2CCC(c3ccc(CCC(F)(F)C(F)(F)F)cn3)CC2)CCN(Cc2ccccc2)CC1 [Example A174] | 1.31 nM | 0.52 nM | 6520 nM | 0.73 nM | > 10000 nM |  |  |  |  | 
2 | O=C(NO)C1(S(=O)(=O)N2CCC(c3ccc(CCC(F)(F)C(F)(F)F)cn3)CC2)Cc2ccccc2C1 [Example A113] | 1.28 nM | 0.34 nM | 4410 nM | 0.8 nM | 9730 nM |  |  |  |  | 
3 | CCCOCCCCC1CCN(S(=O)(=O)C2(C(=O)NO)CCOCC2)CC1 [Example A39, 4-[4-(4-propoxy-butyl)-piperidine-1-sulfonyl]-tetrahydro-pyran-4-carboxylic Acid Hydroxyamide] |  |  |  |  |  | 12.5 nM | 1.99 nM | 1410 nM | 10 nM | 1990 nM
4 | COCC(=O)N1CCC(C(=O)NO)(S(=O)(=O)N2CCC(c3ccc(CCC(F)(F)C(F)(F)F)cn3)CC2)CC1 [Example A109] | 0.6 nM | 0.42 nM | 3720 nM | 26.8 nM | 8300 nM |  |  |  |  | 
5 | O=C(NO)C1(S(=O)(=O)N2CCC(c3ccc(OCC(F)(F)C(F)F)cn3)CC2)CCOCC1 [Example A59, N-hydroxy-4-({4-[5-(2,2,3,3-tetrafluoropropoxy)pyridin-2-yl]piperidin-1-yl}sulfonyl)tetrahydro-2H-pyran-4-carboxamide Hydrochloride] |  |  |  |  |  | 0.76 nM | 0.62 nM | 5150 nM | 1.54 nM | 1660 nM
6 | O=C(NO)C1(S(=O)(=O)N2CCN(c3ccc(-c4cccs4)cn3)CC2)CCOCC1 [Example A187] | 0.54 nM | 0.56 nM | 1240 nM | 2.14 nM | 936 nM |  |  |  |  | 
7 | CCCCCOCCC1CCN(S(=O)(=O)C2(C(=O)NO)CCOCC2)CC1 [Example A47, 4-[4-(2-pentyloxy-ethyl)-piperidine-1-sulfonyl]-tetrahydro-pyran-4-carboxylic Acid Hydroxyamide] |  |  |  |  |  | 18.6 nM | 12.7 nM | > 10000 nM | 10.2 nM | > 10000 nM
8 | O=C(NO)C1(S(=O)(=O)N2CCC(CCCCCC(F)(F)F)CC2)CCOCC1 [Example A43, 4-[4-(6,6,6-Trifluoro-hexyl)-piperidine-1-sulfonyl]-tetrahydro-pyran-4-carboxylic Acid Hydroxyamide] |  |  |  |  |  | 0.33 nM | 0.58 nM | 757 nM | 0.19 nM | 3100 nM
9 | O=C(NO)C1(S(=O)(=O)N2CCN(c3ccc(-c4nnn(CC(F)(F)F)n4)cc3)CC2)CCOCC1 [Example A199] | 0.06 nM | 0.04 nM | 287 nM | 0.84 nM | 287 nM |  |  |  |  | 
10 | O=C(NO)C1(S(=O)(=O)N2CCC(c3ccc(-n4ccnc4)cn3)CC2)CCOCC1 [Example A188] | 7.61 nM | 3.89 nM | 6200 nM | 54.7 nM | 3310 nM |  |  |  |  | 
11 | O=C(NO)C1(S(=O)(=O)N2CCC(OCCCc3ccccc3)CC2)CCOCC1 [Example A36G] |  |  |  |  |  | 31.1 nM | 30.2 nM | 2610 nM | 16.4 nM | > 10000 nM
12 | O=C(NO)C1(S(=O)(=O)N2CCC(c3ccc(CCC(F)(F)C(F)(F)F)cn3)CC2)CCN(c2cccnc2)CC1 [Example A165] | 1.67 nM | 0.647 nM | 7210 nM | 0.979 nM | > 10000 nM |  |  |  |  | 
13 | O=C(NO)C1(S(=O)(=O)N2CCC(CCCCOCCC(F)(F)F)CC2)CCOCC1 [Example A46, 4-{4-[4-(3,3,3-trifluoro-propoxy)-butyl]-piperidine-1-sulfonyl}-tetrahydro-pyran-4-carboxylic Acid Hydroxyamide] |  |  |  |  |  | 5.97 nM | 0.52 nM | 3610 nM | 17.5 nM | 1500 nM
14 | O=C(NO)C1(S(=O)(=O)N2CCC(c3cnc(CCC(F)(F)C(F)(F)F)cn3)CC2)CCOCC1 [Example A65, N-hydroxy-4-({4-[5-(3,3,4,4,4-pentafluorobutyl)pyrazin-2-yl]piperidin-1-yl}sulfonyl)tetrahydro-2H-pyran-4-carboxamide] |  |  |  |  |  | 2.15 nM | 0.47 nM | 3870 nM | 0.19 nM | > 10000 nM
15 | O=C(NO)C1(S(=O)(=O)N2CCC(CCCCCOCCC(F)(F)F)CC2)CCOCC1 [Example A37, 4-{4-[5-(3,3,3-Trifluoro-propoxy)-pentyl]-piperidine-1-sulfonyl}-tetrahydro-pyran-4-carboxylic Acid Hydroxyamide] |  |  |  |  |  | 0.97 nM | 0.3 nM | 690 nM | 0.3 nM | 6710 nM
16 | COCCC(C(=O)NO)S(=O)(=O)N1CCC(c2ccc(CCC(F)(F)C(F)(F)F)cc2)CC1 (centres unmarked) [Example A66, N-hydroxy-4-methoxy-2-({4-[4-(3,3,4,4,4-pentafluorobutyl)phenyl]piperidin-1-yl}sulfonyl)butanamide] |  |  |  |  |  | 2.15 nM | 1.28 nM | 9640 nM | 1.15 nM | > 10000 nM
17 | O=C(NO)C1(S(=O)(=O)N2CCC(CCCCCCCC(F)(F)F)CC2)CCOCC1 [Example A52, 4-[4-(8,8,8-trifluoro-octyl)-piperidine-1-sulfonyl]-tetrahydro-pyran-4-carboxylic Acid Hydroxyamide] |  |  |  |  |  | 0.55 nM | 0.23 nM | 922 nM | 1.03 nM | 3930 nM
18 | O=C(NO)C1(S(=O)(=O)N2CCC(c3ccc(CCc4ccccc4)cn3)CC2)CCOCC1 [Example A100] | 5.27 nM | 0.45 nM | 1770 nM | 13.2 nM | > 10000 nM |  |  |  |  | 
19 | CN(C(=O)CCCCN1CCN(S(=O)(=O)C2(C(=O)NO)CCOCC2)CC1)C1CCCCC1 [Example A125] | > 10000 nM | 106 nM | > 10000 nM | > 10000 nM | > 10000 nM |  |  |  |  | 
20 | O=C(NO)C1(S(=O)(=O)N2CCC(c3cnc(CCC4CC4)cn3)CC2)CCOCC1 [Example A110] | 7.78 nM | 4.4 nM | 9210 nM | 1.03 nM | > 10000 nM |  |  |  |  | 
21 | C#CCN(C)C(=O)CCCCC1CCN(S(=O)(=O)C2(C(=O)NO)CCOCC2)CC1 [Example A83] | 60 nM | 1.58 nM | > 10000 nM | 382 nM | 277 nM |  |  |  |  | 
22 | COC(=O)CCCC#Cc1ccc(C2CCN(S(=O)(=O)C3(C(=O)NO)CCOCC3)CC2)nc1 [Example A136] | 0.33 nM | 0.48 nM | 1150 nM | 2.03 nM | 4300 nM |  |  |  |  | 
